Inhibition data for 1 molecule are collected here from article PMC6934184, “Selective DNA-PKcs inhibition extends the therapeutic index of localized radiotherapy and chemotherapy” (The Journal of Clinical Investigation, 2019).

Molecules are shown by their SMILES.

The target in this assay is T1, KIT A829P (Homo sapiens, UniProt P10721, A829P).
T1 construct: purchased Thermo Fisher Scientific (Life Technologies) SelectScreen
Description: SelectScreen LanthaScreen. The assay is classed as binding. The following applies: read-out: % displacement. In outline:
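SelectScreen broad panel; activity (Z'LYTE, Adapta) plus binding formats. ATP: Km app for CSF1R Z'LYTE; 10 for CAMK1 Adapta. Readout = % per kinase.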

T1 sequence (P10721 26-976 A829P): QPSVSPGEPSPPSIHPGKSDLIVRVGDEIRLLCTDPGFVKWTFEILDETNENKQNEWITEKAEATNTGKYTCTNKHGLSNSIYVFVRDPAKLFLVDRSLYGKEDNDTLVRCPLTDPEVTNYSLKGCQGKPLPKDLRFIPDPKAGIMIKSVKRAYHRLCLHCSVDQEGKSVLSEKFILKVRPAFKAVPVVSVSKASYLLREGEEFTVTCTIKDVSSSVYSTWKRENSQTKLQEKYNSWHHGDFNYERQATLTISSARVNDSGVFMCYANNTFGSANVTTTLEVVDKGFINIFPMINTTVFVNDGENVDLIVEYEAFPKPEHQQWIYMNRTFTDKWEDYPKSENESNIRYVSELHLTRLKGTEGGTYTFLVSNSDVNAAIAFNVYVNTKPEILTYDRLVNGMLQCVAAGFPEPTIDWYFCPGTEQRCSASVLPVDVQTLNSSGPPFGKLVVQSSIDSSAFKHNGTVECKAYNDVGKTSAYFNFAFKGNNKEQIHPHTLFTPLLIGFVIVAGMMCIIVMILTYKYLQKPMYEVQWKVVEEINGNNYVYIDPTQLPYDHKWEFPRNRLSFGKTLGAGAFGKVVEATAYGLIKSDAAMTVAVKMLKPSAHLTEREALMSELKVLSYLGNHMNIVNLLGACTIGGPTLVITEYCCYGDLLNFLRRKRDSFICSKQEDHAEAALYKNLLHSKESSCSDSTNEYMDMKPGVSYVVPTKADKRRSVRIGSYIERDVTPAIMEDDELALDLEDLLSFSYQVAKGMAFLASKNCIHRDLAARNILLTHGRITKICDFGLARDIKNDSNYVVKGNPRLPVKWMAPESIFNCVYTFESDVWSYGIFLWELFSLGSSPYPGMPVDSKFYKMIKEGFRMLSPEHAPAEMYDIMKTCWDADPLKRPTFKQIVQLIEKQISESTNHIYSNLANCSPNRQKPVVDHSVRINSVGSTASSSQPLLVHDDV

Consider `CN(C(=O)CN1CCOCC1)c1ccc2sc3c(-c4cccc5c(=O)cc(N6CC7CCC(C6)O7)oc45)cccc3c2c1` [NU5455], for which the inhibition at 1 µM worked out at 0.7%.
